Reference: US20030032612A1 (priority 1997, published 2003)
Where “and” joins values, the source holds several entries; their conditions need not be identical. Equal values may be shown once.

Key:
Format in all cases: cell-based, E. coli
[1] = system: AG 102 mar mutant; test: Gradient plate assay, MIC of antibiotics in AG 102 with plasmids; settings: Escherichia coli
Experimental: To establish further the inhibitory efficacy of antisense marA sequences, KMN23 (the same DNA vector described above, containing both the marR and the marA genes cloned in the antisense direction) was also expressed in the presence of various antibiotics (tetracycline (Tet), chloramphenicol (Cml), ampicillin (Amp) and rifampicin (Rif). The effect of KMN23 was assessed by measuring cell growth inhibition by the gradient plate method as described in Example 9. The results are shown in TABLE 3.
(§1) Bacterial susceptibility to tetracycline hydrochloride, chloramphenicol, ampicillin, kanamycin, rifampin, nalidixic acid and norfloxacin was assayed by the gradient plate method. (Microbiology: Including Immunology and Molecular Genetics (3rd ed.)(Davis et al. eds.(1980)J. P. Lippincott Co., Philadelphia, Pa.).

[2] = system: ML308-225-C2 (Mar mutant); test: Augmentation of bactericidal activity of norfloxacin by oligonucleotides, colony counts
[3] = system: ML308-C2; test: MIC on antibiotic gradient plates in Mar mutant ML308-C2; settings: Escherichia coli, read-out: MIC of norfloxacin
Experimental: Antibiotic resistant mutants of ML308-225 (Rahman et al. (1991) Antisense Res. Dev. 1:319-327) were grown and maintained at 30° C. in LB broth. These mutants were selected by spreading washed overnight cultures onto a LB agar plate containing chloramphenicol (5 μg/ml, Sigma, St. Louis, Mo.) and incubated at 30° C for 48-72 hours. Single colonies appearing after 48 hours were picked for further study.
One mutant showing increased minimal inhibitory concentrations (hereinafter referred to as MIC) to tetracycline, chloramphenicol, ampicillin, nalidixic acid, and norfloxacin was selected and designated ML308-C2. Sequencing confirmed a C® T substitution in amino acid 117 of marR, which results in a truncated MarR protein. […] Northern analysis using a marA DNA probe confirmed that ML308-C2 over expresses marA and was a Mar mutant (unpublished data).
as §1

Compound | MIC [1] | activity at 0.5 µg/mL ([2]; Escherichia coli, norfloxacin 0.5 µg/mL alone, 1 hour, Table 5, read-out: % OF CONTROL (untreated cells)) | % OF CONTROL CELLS ([2]; norfloxacin 0.5 μg/ml alone, oligo 1284 0 μM, duplicate experiments) | MIC [3]
CC1(C)S[C@@H]2[C@H](NC(=O)[C@H](N)c3ccccc3)C(=O)N2[C@H]1C(=O)O [Amp, ampicillin] | 17.7 µg/mL | – | – | –
O=C(N[C@H](CO)[C@H](O)c1ccc([N+](=O)[O-])cc1)C(Cl)Cl [Cml, chloramphenicol] | 34.2 µg/mL | – | – | –
CCn1cc(C(=O)O)c(=O)c2cc(F)c(N3CCNCC3)cc21 [Norfloxacin, norfloxacin] | – | 65% | 71% and 57% | 0.5 µg/mL
CO[C@H]1/C=C/O[C@@]2(C)Oc3c(C)c(O)c4c(O)c(c(/C=N/N5CCN(C)CC5)c(O)c4c3C2=O)NC(=O)/C(C)=C\C=C\[C@H](C)[C@H](O)[C@@H](C)[C@@H](O)[C@@H](C)[C@H](OC(C)=O)[C@@H]1C [Rif, rifampicin] | 8.8 µg/mL | – | – | –
CN(C)[C@@H]1C(O)=C(C(N)=O)C(=O)[C@@]2(O)C(O)=C3C(=O)c4c(O)cccc4[C@@](C)(O)[C@H]3C[C@@H]12 [Tet, tetracycline] | 12.5 µg/mL | – | – | –
